{
  "source": "patent US20250270172A1",
  "about": "“Pyrimidine Derivatives As Modulators of the 5-HT2A Serotonin Receptor Useful For The Treatment of Disorders Related Thereto” (Arena Pharmaceuticals, Inc., priority 2020, published 2025)",
  "data": [
    {"biological_target": "5-HT2A (Homo sapiens (Human), UniProt P28223)", "sequence (P28223 whole entry)": "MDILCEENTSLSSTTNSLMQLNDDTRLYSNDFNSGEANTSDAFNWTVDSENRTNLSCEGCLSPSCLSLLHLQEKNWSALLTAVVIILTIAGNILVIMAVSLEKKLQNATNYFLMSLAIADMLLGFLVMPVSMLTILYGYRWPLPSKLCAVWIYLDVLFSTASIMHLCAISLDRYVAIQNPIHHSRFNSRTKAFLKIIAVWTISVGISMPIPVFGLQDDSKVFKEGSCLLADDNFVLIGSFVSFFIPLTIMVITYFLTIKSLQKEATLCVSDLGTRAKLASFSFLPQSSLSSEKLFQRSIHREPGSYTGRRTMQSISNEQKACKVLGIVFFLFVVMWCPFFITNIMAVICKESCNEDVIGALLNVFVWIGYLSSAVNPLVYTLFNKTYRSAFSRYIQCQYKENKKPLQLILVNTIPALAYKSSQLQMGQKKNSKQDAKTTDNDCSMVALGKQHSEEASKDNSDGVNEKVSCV", "assay": "Radioligand binding assay, [^3H]5-HT competition, 5-HT2A", "conditions": "[^3H]5-HT radioligand, membranes of HEK293 cells expressing recombinant 5-HT2A; Ki from IC50 by Cheng-Prusoff; read-out: 5-HT2A serotonin binding Ki value", "units": {"Ki": "nM"}, "values": [
      {"smiles": "Cc1ncnc(C)c1-c1cc(NC(=O)c2ccncc2F)ccc1OCCN1CCC1", "note": "[Compound 332, N-(4-(2-(azetidin-1-yl)ethoxy)-3-(4,6-dimethylpyrimidin-5-yl)phenyl)-3-fluoroisonicotinamide]", "Ki": 18.6},
      {"smiles": "Cc1ncnc(C)c1-c1cc(NC(=O)c2ncncc2F)ccc1OCCN1CCC1", "note": "[Compound 333, N-(4-(2-(azetidin-1-yl)ethoxy)-3-(4,6-dimethylpyrimidin-5-yl)phenyl)-5-fluoropyrimidine-4-carboxamide]", "Ki": 224},
      {"smiles": "CC(=O)N1CCN(CCOc2ccc(NC(=O)C3CC3)cc2-c2c(C)ncnc2C)CC1", "note": "[Compound 334, N-[4-[2-(4-acetylpiperazin-1-yl)ethoxy]-3-(4,6-dimethylpyrimidin-5-yl)phenyl]cyclopropanecarboxamide]", "Ki": 17.6},
      {"smiles": "Cc1ncnc(C)c1-c1cc(NC(=O)C2CC2)ccc1OCCN1CCC(CC(=O)O)CC1", "note": "[Compound 335, 2-[1-[2-[4-(cyclopropanecarbonylamino)-2-(4,6-dimethylpyrimidin-5-yl)phenoxy]ethyl]-4-piperidyl]acetic acid]", "Ki": 196},
      {"smiles": "Cc1ncnc(C)c1-c1cc(NC(=O)C2CC2)ccc1OCCN1C[C@@H]2C[C@H]1CO2", "note": "[Compound 336, N-[3-(4,6-dimethylpyrimidin-5-yl)-4-[2-[(1S,4S)-2-oxa-5-azabicyclo[2.2.1]heptan-5-yl]ethoxy]phenyl]cyclopropanecarboxamide]", "Ki": 6.42},
      {"smiles": "Cc1ncnc(C)c1-c1cc(NC(=O)C2CC2)ccc1OCCN1[C@@H]2COC[C@H]1C2", "note": "[Compound 337, N-[3-(4,6-dimethylpyrimidin-5-yl)-4-[2-[(1S,5R)-3-oxa-6-azabicyclo[3.1.1]heptan-6-yl]ethoxy]phenyl]cyclopropanecarboxamide]", "Ki": 7.29},
      {"smiles": "Cc1ncnc(C)c1-c1cc(NC(=O)C2CC2)ccc1OCCN1CCN(C(=O)CO)CC1", "note": "[Compound 339, N-[3-(4,6-dimethylpyrimidin-5-yl)-4-[2-[4-(2-hydroxyacetyl)piperazin-1-yl]ethoxy]phenyl]cyclopropanecarboxamide]", "Ki": 18.4},
      {"smiles": "Cc1ncnc(C)c1-c1cc(NC(=O)C2CC2)ccc1OCCN1CCN(C(=O)C(=O)O)CC1", "note": "[Compound 340, 2-[4-[2-[4-(cyclopropanecarbonylamino)-2-(4,6-dimethylpyrimidin-5-yl)phenoxy]ethyl]piperazin-1-yl]-2-oxo-acetic acid]", "Ki": 374},
      {"smiles": "Cc1ncnc(C)c1-c1cc(NC(=O)C2CC2)ccc1OCCN1CCN(C=O)CC1", "note": "[Compound 341, N-[3-(4,6-dimethylpyrimidin-5-yl)-4-[2-(4-formylpiperazin-1-yl)ethoxy]phenyl]cyclopropanecarboxamide]", "Ki": 9.84},
      {"smiles": "Cc1ncnc(C)c1-c1cc(NC(=O)C2CC2)ccc1OCCN1CCN(S(C)(=O)=O)CC1", "note": "[Compound 342, N-[3-(4,6-dimethylpyrimidin-5-yl)-4-[2-(4-methylsulfonylpiperazin-1yl)ethoxy]phenyl]cyclopropanecarboxamide]", "Ki": 6.95},
      {"smiles": "Cc1ncnc(C)c1-c1cc(NC(=O)C2CC2)ccc1OCCN1CCN2C(=O)OCC2C1", "note": "(centres unmarked) [Compound 343, N-[3-(4,6-dimethylpyrimidin-5-yl)-4-[2-(3-oxo-5,6,8,8a-tetrahydro-1H-oxazolo[3,4-a]pyrazin-7-yl)ethoxy]phenyl]cyclopropanecarboxamide]", "Ki": 48.4},
      {"smiles": "Cc1ncnc(C)c1-c1cc(NC(=O)C2CC2)ccc1OCCN1CC2(COC2)C1", "note": "[Compound 345, N-(4-(2-(2-oxa-6-azaspiro[3.3]heptan-6-yl)ethoxy)-3-(4,6-dimethylpyrimidin-5-yl)phenyl)cyclopropanecarboxamide]", "Ki": 19.5},
      {"smiles": "Cc1ncnc(C)c1-c1cc(NC(=O)C2CC2)ccc1OCCN1CCN2C(=O)CCC2C1", "note": "(centres unmarked) [Compound 346, N-(3-(4,6-dimethylpyrimidin-5-yl)-4-(2-(6-oxohexahydropyrrolo[1,2-a]pyrazin-2 (1H)-yl)ethoxy)phenyl)cyclopropanecarboxamide]", "Ki": 31},
      {"smiles": "Cc1ncnc(C)c1-c1cc(NC(=O)C2CC2)ccc1OCCN1CCC2(CC1)CNC2=O", "note": "[Compound 347, N-(3-(4,6-dimethylpyrimidin-5-yl)-4-(2-(1-oxo-2,7-diazaspiro[3.5]nonan-7-yl)ethoxy)phenyl)cyclopropanecarboxamide]", "Ki": 42.3},
      {"smiles": "Cc1ncnc(C)c1-c1cc(NC(=O)C2CC2)ccc1OCCN1CCC2(CC1)CC(=O)N2", "note": "[Compound 348, N-(3-(4,6-dimethylpyrimidin-5-yl)-4-(2-(2-oxo-1,7-diazaspiro[3.5]nonan-7-yl)ethoxy)phenyl)cyclopropanecarboxamide]", "Ki": 66.6},
      {"smiles": "Cc1ncnc(C)c1-c1cc(NC(=O)C2CC2)ccc1OCCN1CCC2(CCC(=O)O2)CC1", "note": "[Compound 349, N-(3-(4,6-dimethylpyrimidin-5-yl)-4-(2-(2-oxo-1-oxa-8-azaspiro[4.5]decan-8-yl)ethoxy)phenyl)cyclopropanecarboxamide]", "Ki": 12.6},
      {"smiles": "Cc1ncnc(C)c1-c1cc(NC(=O)C2CC2)ccc1OCCN1CCC2(CCOC2=O)CC1", "note": "[Compound 350, N-(3-(4,6-dimethylpyrimidin-5-yl)-4-(2-(1-oxo-2-oxa-8-azaspiro[4.5]decan-8-yl)ethoxy)phenyl)cyclopropanecarboxamide]", "Ki": 43.1},
      {"smiles": "CO[C@H]1CCN(CCOc2ccc(NC(=O)C3CC3)cc2-c2c(C)ncnc2C)C1", "note": "[Compound 352, (S)—N-(3-(4,6-dimethylpyrimidin-5-yl)-4-(2-(3-methoxypyrrolidin-1-yl)ethoxy)phenyl)cyclopropanecarboxamide]", "Ki": 15.5},
      {"smiles": "COCCN(C)CCOc1ccc(NC(=O)C2CC2)cc1-c1c(C)ncnc1C", "note": "[Compound 354, N-[3-(4,6-dimethylpyrimidin-5-yl)-4-[2-[2-methoxyethyl(methyl)amino]ethoxy]phenyl]cyclopropanecarboxamide]", "Ki": 32.1},
      {"smiles": "CCN(CCOC)CCOc1ccc(NC(=O)C2CC2)cc1-c1c(C)ncnc1C", "note": "[Compound 355, N-(3-(4,6-dimethylpyrimidin-5-yl)-4-(2-(ethyl (2-methoxyethyl)amino)ethoxy)phenyl)cyclopropanecarboxamide]", "Ki": 177},
      {"smiles": "CCCN(CCOC)CCOc1ccc(NC(=O)C2CC2)cc1-c1c(C)ncnc1C", "note": "[Compound 356, N-(3-(4,6-dimethylpyrimidin-5-yl)-4-(2-((2-methoxyethyl)(propyl)amino)ethoxy)phenyl)cyclopropanecarboxamide]", "Ki": 533},
      {"smiles": "Cc1ncnc(C)c1-c1cc(NC(=O)C2CC2)ccc1OCCN(C)CCO", "note": "[Compound 357, N-(3-(4,6-dimethylpyrimidin-5-yl)-4-(2-((2-hydroxyethyl)(methyl)amino)ethoxy)phenyl)cyclopropanecarboxamide]", "Ki": 47.3},
      {"smiles": "CCN(CCO)CCOc1ccc(NC(=O)C2CC2)cc1-c1c(C)ncnc1C", "note": "[Compound 358, N-(3-(4,6-dimethylpyrimidin-5-yl)-4-(2-(ethyl(2-hydroxyethyl)amino)ethoxy)phenyl)cyclopropanecarboxamide]", "Ki": 66.7},
      {"smiles": "CCCN(CCO)CCOc1ccc(NC(=O)C2CC2)cc1-c1c(C)ncnc1C", "note": "[Compound 359, N-(3-(4,6-dimethylpyrimidin-5-yl)-4-(2-((2-hydroxyethyl)(propyl)amino)ethoxy)phenyl)cyclopropanecarboxamide]", "Ki": 102},
      {"smiles": "Cc1ncnc(C)c1-c1cc(NC(=O)C2CC2)ccc1OCCN(C)CCF", "note": "[Compound 360, N-(3-(4,6-dimethylpyrimidin-5-yl)-4-(2-((2-fluoroethyl)(methyl)amino)ethoxy)phenyl)cyclopropanecarboxamide]", "Ki": 11},
      {"smiles": "CCN(CCF)CCOc1ccc(NC(=O)C2CC2)cc1-c1c(C)ncnc1C", "note": "[Compound 362, N-[3-(4,6-dimethylpyrimidin-5-yl)-4-[2-[ethyl (2-fluoroethyl)amino]ethoxy]phenyl]cyclopropanecarboxamide]", "Ki": 96.5},
      {"smiles": "CCCN(CCF)CCOc1ccc(NC(=O)C2CC2)cc1-c1c(C)ncnc1C", "note": "[Compound 363, N-[3-(4,6-dimethylpyrimidin-5-yl)-4-[2-[2-fluoroethyl(propyl)amino]ethoxy]phenyl]cyclopropanecarboxamide]", "Ki": 107},
      {"smiles": "Cc1ncnc(C)c1-c1cc(NC(=O)C2CC2)ccc1OCCN(C)CCS(C)(=O)=O", "note": "[Compound 364, N-(3-(4,6-dimethylpyrimidin-5-yl)-4-(2-(methyl(2-(methylsulfonyl)ethyl)amino)ethoxy)phenyl)cyclopropanecarboxamide]", "Ki": 368},
      {"smiles": "Cc1ncnc(C)c1-c1cc(NC(=O)C2CC2)ccc1OCCN(C)CC[S+](C)[O-]", "note": "(centres unmarked) [Compound 365, N-[3-(4,6-dimethylpyrimidin-5-yl)-4-[2-[methyl (2-methylsulfinylethyl)amino]ethoxy]phenyl]cyclopropanecarboxamide]", "Ki": 232},
      {"smiles": "CCN(C)CCOc1ccc(NC(=O)C2CC2)cc1-c1c(C)ncnc1C", "note": "[Compound 366, N-[3-(4,6-dimethylpyrimidin-5-yl)-4-[2-[ethyl(methyl)amino]ethoxy]phenyl]cyclopropanecarboxamide]", "Ki": 11.2},
      {"smiles": "CCCN(C)CCOc1ccc(NC(=O)C2CC2)cc1-c1c(C)ncnc1C", "note": "[Compound 367, N-(3-(4,6-dimethylpyrimidin-5-yl)-4-(2-(methyl(propyl)amino)ethoxy)phenyl)cyclopropanecarboxamide]", "Ki": 37.6},
      {"smiles": "Cc1ncnc(C)c1-c1cc(NC(=O)C2CC2)ccc1OCCN(C)CC1CC1", "note": "[Compound 368, N-(4-(2-((cyclopropylmethyl)(methyl)amino)ethoxy)-3-(4,6-dimethylpyrimidin-5-yl)phenyl)cyclopropanecarboxamide]", "Ki": 19.6},
      {"smiles": "Cc1ncnc(C)c1-c1cc(NC(=O)C2CC2)ccc1OCCN(C)C1CCC1", "note": "[Compound 369, N-(4-(2-(cyclobutyl(methyl)amino)ethoxy)-3-(4,6-dimethylpyrimidin-5-yl)phenyl)cyclopropanecarboxamide]", "Ki": 51.8},
      {"smiles": "CCN(CC)CCOc1ccc(NC(=O)C2CC2)cc1-c1c(C)ncnc1C", "note": "[Compound 370, N-(4-(2-(diethylamino)ethoxy)-3-(4,6-dimethylpyrimidin-5-yl)phenyl)cyclopropanecarboxamide]", "Ki": 78.6}
    ]},
    {"biological_target": "5-HT2A (Homo sapiens (Human), UniProt P28223)", "assay": "Radioligand binding assay, [^3H]5-HT competition, 5-HT2A", "conditions": "read-out: 5-HT2A serotonin binding Ki value", "units": {"Ki": "nM"}, "values": [
      {"smiles": "Cc1ncnc(C)c1-c1cc(NC(=O)C2CC2)ccc1OCCN1CCC(CC(=O)O)C1", "note": "(centres unmarked) [Compound 338, 2-[1-[2-[4-(cyclopropanecarbonylamino)-2-(4,6-dimethylpyrimidin-5-yl)phenoxy]ethyl]pyrrolidin-3-yl]acetic acid]", "Ki": 485}
    ]}
  ]
}
